Experimental data taken from PubChem BioAssay AID220 (DTP/NCI, 2004).
Values joined by “and” are separate entries in the source; they are usually repeats but may differ in a detail not shown here. Equal entries are not always repeated. Records with an inconclusive call do not appear.

Test system: CD8F1 mice, subcutaneous mammary adenocarcinoma, T/C%
Test: NCI In Vivo Anticancer Drug Screen. Data for tumor model Mammary Adenocarcinoma CD8F1 (subcutaneous) in CD8F1
Settings: higher = larger tumour
How it was run: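 Antitumor activity is assessed in transplantable-tumor mice by comparing the treated group with a vehicle-treated control group. Survival or tumor size serves as the measure, reported as T divided by C.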

[1] = endpoint: median tumor weight (est.), dose: 3.12 mg/kg/injection, schedule: Q07DX005 (ip), vehicle: saline
[2] = endpoint: median tumor weight (est.), dose: 50.0 mg/kg/injection, schedule: Q07DX005 (ip), vehicle: saline
[3] = endpoint: median tumor weight (est.), dose: 12.5 mg/kg/injection, schedule: Q07DX005 (ip), vehicle: saline with Tween-80
[4] = endpoint: median tumor weight (est.), dose: 25.0 mg/kg/injection, schedule: Q07DX005 (ip), vehicle: saline with Tween-80
[5] = endpoint: median tumor weight (est.), dose: 50.0 mg/kg/injection, schedule: Q07DX005 (ip), vehicle: saline with Tween-80

Compound: OCCN1CCN(CC/C=C2/c3ccccc3Sc3ccc(C(F)(F)F)cc32)CC1
- T/C [1]: 70 % of control
- T/C (endpoint: median tumor weight (est.), dose: 6.25 mg/kg/injection, schedule: Q07DX005 (ip), vehicle: saline): 107 % of control
- T/C (endpoint: median tumor weight (est.), dose: 12.5 mg/kg/injection, schedule: Q07DX005 (ip), vehicle: saline): 120 % of control
- T/C (endpoint: median tumor weight (est.), dose: 25.0 mg/kg/injection, schedule: Q07DX005 (ip), vehicle: saline): 101 % of control
- T/C [2]: 81 % of control

Compound: O=C1NC2(CCCCC2)C(=O)N1CCN(CCCl)CCCl
- T/C (endpoint: mean tumor weight, dose: 3.0 mg/kg/injection, schedule: Q07DX005 (ip), vehicle: Klucel (hydroxypropylcellulose) (HPC)): 81 % of control
- T/C (endpoint: mean tumor weight, dose: 6.0 mg/kg/injection, schedule: Q07DX005 (ip), vehicle: Klucel (hydroxypropylcellulose) (HPC)): 82 % of control
- T/C (endpoint: mean tumor weight, dose: 12.0 mg/kg/injection, schedule: Q07DX005 (ip), vehicle: Klucel (hydroxypropylcellulose) (HPC)): 42 % of control
- T/C (endpoint: mean tumor weight, dose: 24.0 mg/kg/injection, schedule: Q07DX005 (ip), vehicle: Klucel (hydroxypropylcellulose) (HPC)): 26 % of control
- T/C (endpoint: median tumor weight (est.), dose: 3.0 mg/kg/injection, schedule: Q07DX005 (ip), vehicle: saline): 68 % of control
- T/C (endpoint: median tumor weight (est.), dose: 6.0 mg/kg/injection, schedule: Q07DX005 (ip), vehicle: saline): 75 % of control
- T/C (endpoint: median tumor weight (est.), dose: 12.0 mg/kg/injection, schedule: Q07DX005 (ip), vehicle: saline): 45 % of control
- T/C (endpoint: median tumor weight (est.), dose: 24.0 mg/kg/injection, schedule: Q07DX005 (ip), vehicle: saline): 6 % of control
- T/C (endpoint: median tumor weight change, dose: 9.0 mg/kg/injection, schedule: Q01DX001 (ip), vehicle: saline with Tween-80): 60 % of control
- T/C (endpoint: median tumor weight change, dose: 9.38 mg/kg/injection, schedule: Q01DX001 (ip), vehicle: saline with Tween-80): 75 % of control
- T/C (endpoint: median tumor weight change, dose: 18.0 mg/kg/injection, schedule: Q01DX001 (ip), vehicle: saline with Tween-80): 62 % of control
- T/C (endpoint: median tumor weight change, dose: 37.0 mg/kg/injection, schedule: Q01DX001 (ip), vehicle: saline with Tween-80): 32 % of control
- T/C (endpoint: median tumor weight change, dose: 75.0 mg/kg/injection, schedule: Q01DX001 (ip), vehicle: saline with Tween-80): 19 % of control

Compound: COC(=O)[C@@]12OC[C@]34[C@H]([C@@H](O)[C@@H]1O)[C@@]1(C)CC(=O)C(O)=C(C)[C@@H]1C[C@H]3OC(=O)[C@H](OC(=O)/C=C(\C)C(C)C)[C@@H]24
- T/C (endpoint: median tumor weight (est.), dose: 0.25 mg/kg/injection, schedule: Q07DX005 (ip), vehicle: saline + alcohol): 99 % of control
- T/C (endpoint: median tumor weight (est.), dose: 0.5 mg/kg/injection, schedule: Q07DX005 (ip), vehicle: saline + alcohol): 92 % of control
- T/C (endpoint: median tumor weight (est.), dose: 1.0 mg/kg/injection, schedule: Q07DX005 (ip), vehicle: saline + alcohol): 104 % of control
- T/C (endpoint: median tumor weight change, dose: 1.0 mg/kg/injection, schedule: Q01DX001 (ip), vehicle: saline + alcohol): 85 % of control
- T/C (endpoint: median tumor weight change, dose: 2.0 mg/kg/injection, schedule: Q01DX001 (ip), vehicle: saline + alcohol): 81 % of control
- T/C (endpoint: median tumor weight change, dose: 4.0 mg/kg/injection, schedule: Q01DX001 (ip), vehicle: saline + alcohol): 93 % of control

Compound: S=P(N1CC1)(N1CC1)N1CC1
- T/C (endpoint: mean tumor weight, dose: 1.0 mg/kg/injection, schedule: Q01DX009 (ip), vehicle: saline): 45 % of control
- T/C (endpoint: mean tumor weight, dose: 2.0 mg/kg/injection, schedule: Q01DX009 (ip), vehicle: saline): 7 % of control
- T/C (endpoint: mean tumor weight, dose: 4.0 mg/kg/injection, schedule: Q07DX005 (ip), vehicle: saline): 354 % of control
- T/C (endpoint: mean tumor weight, dose: 4.0 mg/kg/injection, schedule: Q07DX006 (ip), vehicle: saline): 20 % of control
- T/C (endpoint: mean tumor weight, dose: 4.0 mg/kg/injection, schedule: Q07DX007 (ip), vehicle: saline): 1 % of control
- T/C (endpoint: mean tumor weight, dose: 8.0 mg/kg/injection, schedule: Q07DX005 (ip), vehicle: saline): 597 % of control
- T/C (endpoint: mean tumor weight, dose: 8.0 mg/kg/injection, schedule: Q07DX006 (ip), vehicle: saline): 3 % of control
- T/C (endpoint: mean tumor weight, dose: 8.0 mg/kg/injection, schedule: Q07DX007 (ip), vehicle: saline): 6 % of control
- T/C (endpoint: mean tumor weight, dose: 16.0 mg/kg/injection, schedule: Q07DX005 (ip), vehicle: saline): 61 % of control
- T/C (endpoint: median tumor weight (est.), dose: 0.5 mg/kg/injection, schedule: Q07DX005 (ip), vehicle: saline): 96 % of control
- T/C (endpoint: median tumor weight (est.), dose: 1.0 mg/kg/injection, schedule: Q07DX005 (ip), vehicle: saline): 157 % of control
- T/C (endpoint: median tumor weight (est.), dose: 2.0 mg/kg/injection, schedule: Q07DX005 (ip), vehicle: saline): 159 % of control
- T/C (endpoint: median tumor weight (est.), dose: 4.0 mg/kg/injection, schedule: Q07DX005 (ip), vehicle: saline): 42 % of control
- T/C (endpoint: median tumor weight (est.), dose: 8.0 mg/kg/injection, schedule: Q07DX005 (ip), vehicle: saline): 15 % of control

Compound: [CH3][Sn]([CH3])([Cl])[S]CCN
- T/C (endpoint: median tumor weight change, dose: 12.5 mg/kg/injection, schedule: Q01DX001 (ip), vehicle: saline): 108 % of control

Compound: COc1ccc2[nH]c3c(c2c1)CCNC3CC(C)CCC=C(C)C (stereo not drawn)
- T/C (endpoint: median tumor weight change, dose: 15.62 mg/kg/injection, schedule: Q01DX001 (ip), vehicle: Klucel (hydroxypropylcellulose) (HPC)): 118 % of control
- T/C (endpoint: median tumor weight change, dose: 25.0 mg/kg/injection, schedule: Q01DX001 (ip), vehicle: Klucel (hydroxypropylcellulose) (HPC)): 100 % of control
- T/C (endpoint: median tumor weight change, dose: 31.25 mg/kg/injection, schedule: Q01DX001 (ip), vehicle: Klucel (hydroxypropylcellulose) (HPC)): 197 % of control
- T/C (endpoint: median tumor weight change, dose: 50.0 mg/kg/injection, schedule: Q01DX001 (ip), vehicle: Klucel (hydroxypropylcellulose) (HPC)): 64 % of control
- T/C (endpoint: median tumor weight change, dose: 100.0 mg/kg/injection, schedule: Q01DX001 (ip), vehicle: Klucel (hydroxypropylcellulose) (HPC)): 51 % of control
- T/C (endpoint: median tumor weight change, dose: 125.0 mg/kg/injection, schedule: Q01DX001 (ip), vehicle: Klucel (hydroxypropylcellulose) (HPC)): 159 % of control

Compound: CSc1ccc2c(c1)C(N1CCN(C)CC1)Cc1ccccc1S2 (stereo not drawn)
- T/C (endpoint: median tumor weight (est.), dose: 3.12 mg/kg/injection, schedule: Q07DX005 (ip), vehicle: saline with Tween-80): 104 % of control
- T/C (endpoint: median tumor weight (est.), dose: 6.25 mg/kg/injection, schedule: Q07DX005 (ip), vehicle: saline with Tween-80): 95 % of control
- T/C [3]: 63 % of control
- T/C [4]: 53 % of control
- T/C [5]: 104 % of control

Compound: CN(C)c1ccc2c(N(C)C)cc(N(C)C)nc2c1
- T/C (endpoint: median tumor weight (est.), dose: 3.12 mg/kg/injection, schedule: Q07DX005 (ip), vehicle: Klucel (hydroxypropylcellulose) (HPC)): 58 % of control
- T/C (endpoint: median tumor weight (est.), dose: 6.25 mg/kg/injection, schedule: Q07DX005 (ip), vehicle: Klucel (hydroxypropylcellulose) (HPC)): 78 % of control

Compound: C/C=C(\C)c1cc(=O)c2c(C)cc3c(c2o1)C(=O)c1c(O)c(C2CC(C)(N(C)C)C(O)C(C)O2)cc(C2CC(N(C)C)C(O)C(C)O2)c1C3=O (stereo not drawn)
- T/C (endpoint: median tumor weight change, dose: 0.16 mg/kg/injection, schedule: Q01DX001 (ip), vehicle: saline): 78 % of control
- T/C (endpoint: median tumor weight change, dose: 0.31 mg/kg/injection, schedule: Q01DX001 (ip), vehicle: saline): 51 % of control
- T/C (endpoint: median tumor weight change, dose: 0.62 mg/kg/injection, schedule: Q01DX001 (ip), vehicle: saline): 52 % of control
- T/C (endpoint: median tumor weight change, dose: 2.5 mg/kg/injection, schedule: Q01DX001 (ip), vehicle: suspension in saline): 61 % of control
- T/C (endpoint: median tumor weight change, dose: 5.0 mg/kg/injection, schedule: Q01DX001 (ip), vehicle: suspension in saline): 42 % of control
- T/C (endpoint: median tumor weight change, dose: 10.0 mg/kg/injection, schedule: Q01DX001 (ip), vehicle: saline): -9 % of control

Compound: NC(=S)N/N=C/c1ccc(OC(=O)COc2ccc(Cl)cc2)cn1
- T/C (endpoint: mean tumor weight, dose: 25.0 mg/kg/injection, schedule: Q07DX008 (ip), vehicle: saline): 100 % of control
- T/C (endpoint: mean tumor weight, dose: 50.0 mg/kg/injection, schedule: Q07DX008 (ip), vehicle: saline): 50 % of control
- T/C (endpoint: mean tumor weight, dose: 100.0 mg/kg/injection, schedule: Q07DX008 (ip), vehicle: saline): 64 % of control
- T/C (endpoint: mean tumor weight, dose: 200.0 mg/kg/injection, schedule: Q07DX008 (ip), vehicle: saline): 60 % of control
- T/C (endpoint: mean tumor weight, dose: 400.0 mg/kg/injection, schedule: Q07DX008 (ip), vehicle: saline): 105 % of control
- T/C [3]: 52 % of control
- T/C [4]: 167 % of control
- T/C [5]: 79 % of control
- T/C (endpoint: median tumor weight (est.), dose: 100.0 mg/kg/injection, schedule: Q07DX005 (ip), vehicle: saline with Tween-80): 114 % of control
- T/C (endpoint: median tumor weight (est.), dose: 200.0 mg/kg/injection, schedule: Q07DX005 (ip), vehicle: saline with Tween-80): 82 % of control
- T/C (endpoint: median tumor weight (est.), dose: 400.0 mg/kg/injection, schedule: Q07DX005 (ip), vehicle: saline with Tween-80): 119 % of control

Compound: CNc1n[n+](-c2ccccc2)no1
- T/C (endpoint: mean tumor weight, dose: 3.12 mg/kg/injection, schedule: Q07DX006 (ip), vehicle: saline): 90 % of control
- T/C (endpoint: mean tumor weight, dose: 12.5 mg/kg/injection, schedule: Q07DX006 (ip), vehicle: saline): 27 % of control
- T/C (endpoint: mean tumor weight, dose: 25.0 mg/kg/injection, schedule: Q07DX006 (ip), vehicle: saline): 81 % of control
- T/C (endpoint: mean tumor weight, dose: 50.0 mg/kg/injection, schedule: Q07DX006 (ip), vehicle: saline): 2 % of control
- T/C [1]: 157 % of control
- T/C [2]: 50 % of control and 60 % of control

Compound: O=C(/C=C(\Cl)C(=O)NO)NO
- T/C (endpoint: median tumor weight change, dose: 62.5 mg/kg/injection, schedule: Q01DX001 (ip), vehicle: suspension in saline): 111 % of control
- T/C (endpoint: median tumor weight change, dose: 125.0 mg/kg/injection, schedule: Q01DX001 (ip), vehicle: suspension in saline): 79 % of control
- T/C (endpoint: median tumor weight change, dose: 250.0 mg/kg/injection, schedule: Q01DX001 (ip), vehicle: suspension in saline): 83 % of control
